In patent US8609870B2, “Treating various disorders using TrkB agonists” (Emory University, priority 2008, dated 2013):

How the values were obtained:
TrkB [1] = target: T1, TrkB (Mus musculus, UniProt P15209); experiment: TrkB activation in BDNF cortex conditional knockout mice; format: in vivo; conditions: 5 mg/kg i.p., sacrificed at 4 hours; wild-type and BDNF −/− mice
T1 construct: Brain lysates were prepared and analyzed by immunoblotting; from tissue; host or cells: mouse brain
Description: The Cortex-Specific Cre mouse line was previously described as “transgenic line C” (Chhatwal et al., Gene Ther. 14, 575-583 (2007)). Briefly, coding sequence for Cre-recombinase (Cre-IRES-DsRed2) was placed downstream of a 3 kb cholecystokinin (CCK) promoter, linearized, purified, and microinjected into the pronuclei of one-cell C57/BL6 embryos, which were then implanted into pseudopregnant C57/BL6 females. Following verification of gene expression in the different transgenic lines (Chhatwal et al., Nat. Neurosci. 9, 870-872 (2006)), the cortex-specific “line C” was crossed to a floxed-stop lacZ reporter mouse line (Soriano, Nat. Genet., 21, 70-71 (1999)) as well as the floxed BDNF mouse line (Rios et al., Mol. Endocrinol., 15, 1748-1757 (2001)). Region specific Cre gene expression and BDNF deletion were confirmed with in situ hybridization, x-gal staining for β-galactosidase expression, and Western blot for BDNF protein levels.
To examine whether deoxygedunin activating TrkB involved endogenous BDNF, BDNF conditional knockout mice with BDNF gene deletion limited to cortex (thus allowing normal development) were used. Deoxygedunin (5 mg/kg) was intraperitoneally injected into the BDNF cortex conditional knockout mice and the mice were sacrificed at 4 hours. […]

TrkB F616A knockin mice = experiment: KA-provoked apoptosis (caspase-3) in TrkB F616A knockin mice; format: in vivo, mouse; conditions: TrkB F616A mice, without 1NMPP1
Description: To determine if 1NMPP1 makes neurons treated with an identified active compound vulnerable to KA-provoked neuronal cell death, TrkF616A knockin mice are fed with 1NMPP1 (25 mM) in drinking water one day prior to pharmacological reagent treatment. The next day, the mice are intraperitoneally injected with KA (25 mg/kg), or an identified active compound (5 mg/kg) 4 hours prior to KA injection. The control mice are injected with either KA or an identified active compound alone, or the mice are administered an identified active compound 4 hours before KA. After 4 days, the mice are sacrificed and the brains are homogenized and ultracentrifuged. The supernatant then is employed for SDS-PAGE and immunoblotting analysis.
[…] inversely correlated with TrkB activation by deoxygedunin (FIG. 20, top and middle panels).

TrkA = TrkA (Mus musculus, UniProt Q3UFB7); experiment: TrkA activation in cortical neurons from knockout mouse pups; format: cell-based; set-up: endogenous in cells; host or cells: primary cortical neurons from mouse pups
Chain of TrkA (Q3UFB7 34-799): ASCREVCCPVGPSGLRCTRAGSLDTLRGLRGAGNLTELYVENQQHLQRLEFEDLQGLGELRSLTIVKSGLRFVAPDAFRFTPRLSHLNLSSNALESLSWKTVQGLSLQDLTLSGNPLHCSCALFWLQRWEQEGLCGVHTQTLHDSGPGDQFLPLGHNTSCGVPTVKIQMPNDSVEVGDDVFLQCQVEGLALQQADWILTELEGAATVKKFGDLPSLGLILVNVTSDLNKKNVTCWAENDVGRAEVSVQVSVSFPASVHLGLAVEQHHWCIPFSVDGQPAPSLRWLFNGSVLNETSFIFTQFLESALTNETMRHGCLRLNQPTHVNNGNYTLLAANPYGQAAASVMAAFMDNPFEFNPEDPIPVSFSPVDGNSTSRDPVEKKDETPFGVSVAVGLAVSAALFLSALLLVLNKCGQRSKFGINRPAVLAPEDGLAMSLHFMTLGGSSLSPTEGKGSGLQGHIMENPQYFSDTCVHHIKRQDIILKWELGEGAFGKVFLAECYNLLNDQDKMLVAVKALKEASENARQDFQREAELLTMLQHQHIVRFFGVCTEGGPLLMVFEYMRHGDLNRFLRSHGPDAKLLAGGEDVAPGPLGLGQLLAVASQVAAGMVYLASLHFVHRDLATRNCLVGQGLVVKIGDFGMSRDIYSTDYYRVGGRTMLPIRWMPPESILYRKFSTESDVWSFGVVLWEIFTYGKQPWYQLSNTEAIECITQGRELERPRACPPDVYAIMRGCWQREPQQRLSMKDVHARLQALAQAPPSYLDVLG

C57BL/6 mice = experiment: KA-induced apoptosis in hippocampus (TUNEL staining); format: in vivo, mouse; conditions: 5 mg/kg i.p. followed by 20 mg/kg KA, 5 days
TrkB [2] = target: T2, TrkB (Homo sapiens, UniProt Q16620); experiment: TrkB dimerization assay (GST pull-down, transfected HEK293 cells); format: cell-based
T2 construct: expressed in transfected cells; host or cells: HEK293
T2 sequence (Q16620 32-822, species assumed): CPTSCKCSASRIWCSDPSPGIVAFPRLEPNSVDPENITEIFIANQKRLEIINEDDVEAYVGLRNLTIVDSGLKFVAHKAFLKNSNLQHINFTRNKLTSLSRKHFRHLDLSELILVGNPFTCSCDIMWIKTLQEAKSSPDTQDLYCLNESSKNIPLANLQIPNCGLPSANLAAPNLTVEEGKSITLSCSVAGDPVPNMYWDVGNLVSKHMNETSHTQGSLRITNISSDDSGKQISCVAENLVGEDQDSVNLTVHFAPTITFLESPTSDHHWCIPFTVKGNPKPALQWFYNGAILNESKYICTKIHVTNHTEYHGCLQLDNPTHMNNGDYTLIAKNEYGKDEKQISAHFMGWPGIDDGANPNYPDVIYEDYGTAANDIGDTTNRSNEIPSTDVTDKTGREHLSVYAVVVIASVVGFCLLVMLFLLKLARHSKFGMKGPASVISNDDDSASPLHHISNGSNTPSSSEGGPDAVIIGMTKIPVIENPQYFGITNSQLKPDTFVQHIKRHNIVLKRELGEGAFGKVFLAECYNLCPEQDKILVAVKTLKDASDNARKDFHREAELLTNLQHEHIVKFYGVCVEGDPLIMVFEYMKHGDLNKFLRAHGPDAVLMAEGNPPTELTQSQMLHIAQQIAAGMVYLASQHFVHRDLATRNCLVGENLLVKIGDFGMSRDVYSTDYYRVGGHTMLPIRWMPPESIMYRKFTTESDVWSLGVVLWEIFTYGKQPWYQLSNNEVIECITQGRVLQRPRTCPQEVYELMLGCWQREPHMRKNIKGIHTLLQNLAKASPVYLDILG
T2 sequence (Q16620 32-822, species assumed): as above
Description: HEK293 cells transfected with GST-TrkB and HA-TrkA or TrkB were washed once in PBS, and lysed in 1 ml lysis buffer (50 mM Tris, pH 7.4, 150 mM NaCl, 1 mM EDTA, 0.5% Triton X-100, 1.5 mM Na3VO4, 50 mM NaF, 10 mM sodium pyrophosphate, 10 mM sodium β-glycerophosphate, 1 mM phenylmethylsulfonyl fluoride (PMSF), […], […] leupeptin, […] pepstatin A), and centrifuged for 10 minutes at 14,000×g at 4° C. The supernatant was then transferred to a fresh tube and transfected TrkB receptor was pulled down with glutathione beads. The coprecipitated proteins were resolved on SDS-PAGE. The samples were transferred to a nitrocellular membrane, and immunoblotting analysis was performed with a variety of antibodies.
BDNF is known to bind the TrkB receptor and provoke its dimerization (Barbacid, J. Neurobiol., 25:1386-1403, 1994; Klein et al, Cell, 66:395-403, 1991). To explore whether an identified active compound triggers TrkB receptor dimerization, HEK293 cells are cotransfected with GST-TrkB and HA-TrkB or HA-TrkA. The cells then are treated with BDNF or an identified active compound (0.5 μM) for 30 minutes. […]

T1 sequence (P15209 32-821): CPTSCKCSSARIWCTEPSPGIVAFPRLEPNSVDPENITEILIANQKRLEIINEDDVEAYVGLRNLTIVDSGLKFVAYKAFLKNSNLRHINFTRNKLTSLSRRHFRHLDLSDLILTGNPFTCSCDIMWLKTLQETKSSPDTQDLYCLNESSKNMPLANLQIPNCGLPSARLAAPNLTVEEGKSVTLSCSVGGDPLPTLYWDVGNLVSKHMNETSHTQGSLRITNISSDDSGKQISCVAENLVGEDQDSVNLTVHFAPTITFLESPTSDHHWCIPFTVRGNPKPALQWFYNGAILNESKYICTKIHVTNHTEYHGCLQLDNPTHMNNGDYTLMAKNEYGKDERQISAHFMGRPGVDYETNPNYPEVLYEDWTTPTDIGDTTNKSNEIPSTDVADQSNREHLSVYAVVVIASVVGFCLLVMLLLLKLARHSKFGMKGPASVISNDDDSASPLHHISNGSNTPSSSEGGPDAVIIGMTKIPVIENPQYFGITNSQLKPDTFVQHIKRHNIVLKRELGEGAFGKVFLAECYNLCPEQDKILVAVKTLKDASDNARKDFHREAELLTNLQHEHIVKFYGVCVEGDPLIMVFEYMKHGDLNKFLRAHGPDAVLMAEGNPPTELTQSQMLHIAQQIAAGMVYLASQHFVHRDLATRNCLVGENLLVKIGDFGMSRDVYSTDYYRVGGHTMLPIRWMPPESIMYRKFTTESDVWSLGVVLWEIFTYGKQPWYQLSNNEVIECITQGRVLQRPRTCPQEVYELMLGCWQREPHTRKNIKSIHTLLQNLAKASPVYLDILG

CC(=O)O[C@@H]1C[C@H]2C(C)(C)C(=O)C=C[C@]2(C)[C@H]2CC[C@]3(C)C(=CC(=O)O[C@H]3c3ccoc3)[C@@]21C [deoxygedunin]
TrkB activation (TrkB [1]): TrkB activation occurred in both wild-type and BDNF −/− mice | KA-provoked apoptosis (TrkB F616A knockin mice): suppressed KA-provoked apoptosis | TrkA activation (TrkA; both wild-type and TrkC knockout neurons): not TrkA activation | TrkA activation (TrkA; cortical neurons (pups of TrkB +/− mice)): not TrkA receptor | KA provoked apoptosis in the hippocampus (TUNEL staining) (C57BL/6 mice): diminished | decrease of KA induced apoptosis in hippocampus (C57BL/6 mice): 60% | TrkB dimerization (TrkB [2]): robustly provoked TrkB dimerization with an effect even stronger than BDNF
